From PMC8008425, “Shedding X-ray Light on the Role of Magnesium in the Activity of Mycobacterium tuberculosis Salicylate Synthase (MbtI) for Drug Design” (Journal of Medicinal Chemistry, 2020)
In brackets after ≈: the same amount, converted by molar mass. Several values for one entry are separate records, joined by “and”; a condition that tells them apart may be missing. Equal values may be shown once. Read-outs that look alike come from different tables or passages of the source.

What was measured:
recombinant MbtI [1] = target: T1, recombinant MbtI (Mycobacterium tuberculosis, UniProt P9WFX1); experiment: MbtI enzymatic (fluorimetric) inhibition assay; format: biochemical; settings: for remaining activity at 100 µM: residual enzymatic activity at 100 μM ligand concentration, 50 μM chorismic acid
recombinant MbtI [2] = target: T1, recombinant MbtI; settings: cited from earlier work
M. tuberculosis H37Rv [3] = system: M. tuberculosis H37Rv; set-up: method as in PMID 29940465, PMID 30889995; settings: Mtb cultures; cited from earlier work
M. tuberculosis H37Rv [4] = experiment: MIC99 determination on Middlebrook 7H11 agar solid medium; format: cell-based; settings: Mycobacterium tuberculosis
M. bovis BCG [5] = experiment: microbe, parasite or virus in culture; format: cell-based; settings: Mycobacterium tuberculosis variant bovis BCG
M. bovis BCG [6] = format: cell-based, Mycobacterium bovis; settings: M. bovis BCG cultures grown at different concentrations of compound, chelated Sauton's medium
in vitro = settings: human
[7] = standard assay, 5 mM MgCl2, read-out: IC50

T1 sequence (P9WFX1 whole entry): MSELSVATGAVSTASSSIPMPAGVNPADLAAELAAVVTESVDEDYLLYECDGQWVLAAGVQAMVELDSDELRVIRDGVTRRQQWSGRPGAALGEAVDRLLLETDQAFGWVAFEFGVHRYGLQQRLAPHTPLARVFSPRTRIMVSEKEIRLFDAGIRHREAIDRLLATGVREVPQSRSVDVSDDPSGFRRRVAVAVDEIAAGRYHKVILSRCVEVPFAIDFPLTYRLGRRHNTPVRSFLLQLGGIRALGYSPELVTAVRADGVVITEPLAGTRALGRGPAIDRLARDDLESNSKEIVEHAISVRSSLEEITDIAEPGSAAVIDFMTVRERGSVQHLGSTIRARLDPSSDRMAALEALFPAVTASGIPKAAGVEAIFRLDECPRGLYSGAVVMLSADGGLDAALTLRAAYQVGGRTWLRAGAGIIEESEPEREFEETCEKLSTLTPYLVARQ

Compound: Cc1cccc(-c2ccc(C(=O)O)o2)c1 [Compound 4, 5-(m-Tolyl)furan-2-carboxylic Acid]
- remaining activity at 100 µM (recombinant MbtI [1]; 5 mM MgCl2): 104 ± 4.8%
- melting point: 147 °C

Compound: O=C(O)c1ccc(-c2cccc([N+](=O)[O-])c2)o1 [NO2, 5-(3-nitrophenyl)furan-2-carboxylic acid]
- inhibitory activity (recombinant MbtI [2]; at a concentration of 100 μM): ~50%

Compound: O=C(O)c1ccc(-c2cccc(O)c2)o1 [Compound 3, 5-(3-Hydroxyphenyl)furan-2-carboxylic Acid]
- remaining activity at 100 µM (recombinant MbtI [1]; 5 mM MgCl2): 70.4 ± 21.8%
- melting point: 170 °C

Compound: O=C(O)c1ccc(-c2cccc(Cl)c2)o1 [Compound 2, 5-(3-Chlorophenyl)furan-2-carboxylic Acid]
- remaining activity at 100 µM (recombinant MbtI [1]; 5 mM MgCl2): 102 ± 17.8%
- melting point: 187 °C (dec.)

Compound: O=C(O)c1cccc(-c2ccc(C(=O)O)o2)c1 [Compound 9, 5-(3-Carboxyphenyl)furan-2-carboxylic Acid]
- remaining activity at 100 µM (recombinant MbtI [1]; 5 mM MgCl2): 27.2 ± 4.5%

Compound: NC(=O)c1cccc(-c2ccc(C(=O)O)o2)c1 [Compound 6, 5-(3-Carbamoylphenyl)furan-2-carboxylic Acid]
- remaining activity at 100 µM (recombinant MbtI [1]; 5 mM MgCl2): 20.9 ± 4.3%
- IC50 (recombinant MbtI [1]; [7]): 31 µM and 31.4 µM

Compound: NS(=O)(=O)c1cccc(-c2ccc(C(=O)O)o2)c1 [Compound 8, 5-(3-Sulfamoylphenyl)furan-2-carboxylic Acid]
- remaining activity at 100 µM (recombinant MbtI [1]; 5 mM MgCl2): 28.6 ± 6.8%

Compound: CNC(=O)c1cccc(-c2ccc(C(=O)O)o2)c1 [Compound 7, 5-(3-(Methylcarbamoyl)phenyl)furan-2-carboxylic Acid]
- remaining activity at 100 µM (recombinant MbtI [1]; 5 mM MgCl2): 84 ± 9.1%
- melting point: 159 °C

Compound: O=C(O)c1ccc(-c2ccc(C(F)(F)F)cc2C(F)(F)F)o1 [II]
- MIC99 (M. tuberculosis H37Rv [3]): 250 µM (≈ 81 µg/mL)

Compound: N#Cc1cccc(-c2ccc(C(N)=O)o2)c1 [Compound 11, 5-(3-Cyanophenyl)furan-2-carboxamide]
- IC50 (recombinant MbtI [1]; [7]): 17.3 ± 1.9 µM
- melting point: 202 °C

Compound: Nc1cccc(-c2ccc(C(=O)O)o2)c1 [Compound 5, 5-(3-Aminophenyl)furan-2-carboxylic Acid]
- remaining activity at 100 µM (recombinant MbtI [1]; 5 mM MgCl2): 65.8 ± 9.6%
- melting point: 225 °C (dec.)

Compound: N#Cc1cccc(-c2ccc(C(=O)O)o2)c1 [Compound 10, 5-(3-Cyanophenyl)furan-2-carboxylic Acid]
- IC50 (recombinant MbtI [1]; 0.1 mg/mL BSA, PAINS control, read-out: IC50 in the presence of BSA): 6.1 ± 0.9 µM
- IC50 (recombinant MbtI [1]; 1 mM MgCl2, Figure 5B, x-axis [10] (μM), read-out: IC50 at 1 mM MgCl2): 9.8 ± 1.3 µM
- IC50 (recombinant MbtI [1]; 5 mM MgCl2, Figure 5B, x-axis [10] (μM), read-out: IC50 at 5 mM MgCl2): 11.4 ± 2 µM
- IC50 (recombinant MbtI [1]; 0.01% (v/v) Triton X-100, PAINS control, read-out: IC50 in the presence of Triton X-100): 5.8 ± 1.2 µM
- IC50 (recombinant MbtI [1]; 25 mM MgCl2, Figure 5B, x-axis [10] (μM), read-out: IC50 at 25 mM MgCl2): 14.2 ± 1.1 µM
- IC50 (recombinant MbtI [1]; 100 mM DTT, PAINS control, read-out: IC50 in the presence of DTT): 7.2 ± 1.1 µM
- IC50 (recombinant MbtI [1]; IC50, standard assay, 5 mM MgCl2): 6.3 ± 0.9 µM
- remaining activity at 100 µM (recombinant MbtI [1]; 5 mM MgCl2): 3.1 ± 1%
- IC50 (recombinant MbtI [1]; [7]): ~6 µM
- mode of inhibition (kinetic analysis) (recombinant MbtI [1]; steady-state kinetics toward chorismic acid): competitive inhibitor
- Ki (recombinant MbtI [1]; steady-state kinetics toward chorismic acid, competitive inhibition): 4.2 µM and 4 µM
- MIC99 (M. tuberculosis H37Rv [4]): 250 µM (≈ 53.3 µg/mL)
- MIC99 (M. bovis BCG [5]): 250 µM (≈ 53.3 µg/mL)
- siderophore concentration (Universal CAS assay and quantification of mycobactins) (M. bovis BCG [6]): siderophore concentration decreased at higher concentrations of the compound
- IC50 (in vitro): > 100 µM

Compound: O=C(O)c1ccc(-c2ccc([N+](=O)[O-])cc2)o1 [I]
- IC50 (recombinant MbtI [2]; previous leads): 7.6 ± 1.6 µM
- MIC99 (M. tuberculosis H37Rv [3]): 156 µM (≈ 36.4 µg/mL)

Compound: O=C(O)c1ccc(-c2cccc(C(F)(F)F)c2)o1 [Compound 1]
- remaining activity at 100 µM (recombinant MbtI [1]; 5 mM MgCl2): 42 ± 6.3%
